From US12180226B2, “Spirotricycle RIPK1 inhibitors and methods of uses thereof” (Merck Sharp & Dohme LLC, priority 2021, dated 2024)
pEC50: −log10 of the molar value. Where a name gives a salt, the structure may show the parent alone.

These molecules were tested against RIPK1 (recombinant GST-RIPK1 kinase domain, residues 1-327) (Homo sapiens (Human), UniProt Q13546) (assay: RIPK1-ADP-Glo Enzymatic Assay). Conditions: ADP-Glo; 25 nM GST-RIPK1, 300 μM ATP; assay lower limit ~25 nM; read-out: RIPK1 V0 Ec50.
Type: biochemical
In short: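 Enzyme from baculovirus-infected Sf21 cells, 25 nM final, was pre-incubated 30 min at ambient temperature with compound (ten-point, 1:3 dilution from 100000 nM, 1% DMSO), then reacted 150 min with 300 μM ATP and 3 μM dephosphorylated MBP. ADP was read by luminescence; EC50 from four-parameter fit.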

Chain of RIPK1 (recombinant GST-RIPK1 kinase domain, residues 1-327) (Q13546 1-327): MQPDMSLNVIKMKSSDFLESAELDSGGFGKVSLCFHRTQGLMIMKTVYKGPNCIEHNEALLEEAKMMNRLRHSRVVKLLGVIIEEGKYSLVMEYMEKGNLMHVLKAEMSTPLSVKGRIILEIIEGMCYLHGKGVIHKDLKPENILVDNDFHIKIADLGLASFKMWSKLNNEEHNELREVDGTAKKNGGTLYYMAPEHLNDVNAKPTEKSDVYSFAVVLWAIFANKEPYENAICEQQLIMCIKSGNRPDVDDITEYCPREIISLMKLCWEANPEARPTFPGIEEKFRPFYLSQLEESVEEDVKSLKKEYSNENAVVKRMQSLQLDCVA

Structure (SMILES) | pEC50
COc1nccc(N2CCC3(CC2)O[C@@H]2CC[C@@H](c4ccccc4)N2C3=O)n1 [Example 4.17, (5′S,7a′R)-1-(2-methoxypyrimidin-4-yl)-5′-phenyltetrahydro-3′H-spiro[piperidine-4,2′-pyrrolo[2,1-b] [1,3]oxazol]-3′-one] | > 7.60
COc1cc(-n2ccc(N3CCC4(CC3)O[C@@H]3CC[C@@H](c5ccccc5)N3C4=O)n2)ccn1 [Example 11.6, (5′S,7a′R)-1-[1-(2-methoxypyridin-4-yl)-1H-pyrazol-3-yl]-5′-phenyltetrahydro-3′H-spiro[piperidine-4,2′-pyrrolo[2,1-b][1,3]oxazol]-3′-one] | 7.50
O=C1N2[C@@H](CC[C@H]2c2ccccc2)OC12CCN(c1cnc(-c3ncco3)cn1)CC2 [Example 21.14, (5′S,7a′R)-1-[5-(1,3-oxazol-2-yl)pyrazin-2-yl]-5′-phenyltetrahydro-3′H-spiro[piperidine-4,2′-pyrrolo[2,1-b][1,3]oxazol]-3′-one] | 7.24
N#Cc1cnc(N2CCC3(CC2)O[C@@H]2CC[C@@H](c4ccccc4)N2C3=O)c(F)c1 [Example 4.72, 5-fluoro-6-[(5′S,7a′R)-3′-oxo-5′-phenyltetrahydro-1H,3′H-spiro[piperidine-4,2′-pyrrolo[2,1-b] [1,3]oxazol]-1-yl]pyridine-3-carbonitrile] | 7.53
O=C(c1cccc2ccnn12)N1CCC2(CC1)O[C@@H]1CC[C@@H](c3cc(F)cc(F)c3)N1C2=O [Example 6.27, (5′S,7a′R)-5′-(3,5-difluorophenyl)-1-(pyrazolo[1,5-a]pyridine-7-carbonyl) tetrahydro-3′H-spiro [piperidine-4,2′-pyrrolo[2,1-b][1,3]oxazol]-3′-one] | 7.32
O=C(c1cc(F)ccc1F)N1CCC2(O[C@@H]3CC[C@@H](c4ccccc4)N3C2=O)C(F)C1 (stereo partly drawn) [Example 6.112] | > 7.60
Cn1cnc(-c2ccc(N3CCC4(CC3)O[C@@H]3CC[C@@H](c5ccccc5)N3C4=O)n3ncnc23)c1 [Example 21.21, (5′S,7a′R)-1-[8-(1-methyl-1H-imidazol-4-yl)[1,2,4]triazolo[1,5-a]pyridin-5-yl]-5′-phenyltetrahydro-3′H-spiro[piperidine-4,2′-pyrrolo[2,1-b][l,3]oxazol]-3′-one] | > 7.60
O=C1N2[C@@H](CC[C@H]2c2cc(F)cc(F)c2)OC12CCN(c1ccc(F)c3ccnn13)CC2 [Example 16.1, (5′S,7a′R)-5′-(3,5-difluorophenyl)-1-(4-fluoropyrazolo[1,5-a]pyridin-7-yl)tetrahydro-3′H-spiro[piperidine-4,2′-pyrrolo[2,1-b]oxazol]-3′-one, TFA salt] | > 7.60
N#Cc1ccc(N2CCC3(CC2)O[C@@H]2CC[C@@H](c4cc(F)cc(F)c4)N2C3=O)cc1F [Example 4.18, 4-[(5′S,7a′R)-5′-(3,5-difluorophenyl)-3′-oxotetrahydro-1H,3′H-spiro[piperidine-4,2′-pyrrolo[2,1-b] [1,3]oxazol]-1-yl]-2-fluorobenzonitrile] | > 7.60
O=C(c1ccccc1)N1CC2(C1)S[C@@H]1CC[C@@H](c3cc(F)cc(F)c3)N1C2=O [Example 1.25, (5′S,7a′R)-1-benzoyl-5′-(3,5-difluorophenyl)tetrahydro-3′H-spiro[azetidine-3,2′-pyrrolo[2,1-b]thiazol]-3′-one] | 7.01
O=C(c1ccccc1)N1CCC2(CC1)O[C@@H]1CC[C@@H](c3cnc4c(c3)CCC4)N1C2=O [Example 17.12, (5′S,7a′R)-1-benzoyl-5′-(6,7-dihydro-5H-cyclopenta[b]pyridin-3-yl)tetrahydro-3′H-spiro[piperidine-4,2′-pyrrolo[2,1-b]oxazol]-3′-one] | 6.47
CC1CC2(CCN1c1ncnc3ccnn13)O[C@@H]1CC[C@@H](c3cc(F)cc(F)c3)N1C2=O (stereo partly drawn) [Example 4.213, (5′S,7a′R)-5′-(3,5-difluorophenyl)-2-methyl-1-(pyrazolo[1,5-a] [1,3,5]triazin-4-yl)tetrahydro-3′H-spiro[piperidine-4,2′-pyrrolo[2,1-b] [1,3]oxazol]-3′-one] | > 7.60
